The source of these data is BindingDB's records for doi:10.1021/jm061242y (Elan Pharmaceuticals, 2007).

The target in this assay is Beta-secretase 1 (Homo sapiens, UniProt P56817). The assay can be described thus: BACE Enzyme Inhibition Assay. The conditions noted are these: pH 4.8; 37 °C. On the procedure: Beta-cleavage ELISA assays were carried out in reaction buffer containing enzyme, substrate MBP-C125, and test compounds. Generated beta-cleaved product was detected using biotinylated Sw192 or biotinyated Wt192 as specific reporter antibodies and quantitated against the appropriate MBP-C125 standard.

Structures are written as SMILES.

Beta-secretase 1, sequence (P56817 whole entry): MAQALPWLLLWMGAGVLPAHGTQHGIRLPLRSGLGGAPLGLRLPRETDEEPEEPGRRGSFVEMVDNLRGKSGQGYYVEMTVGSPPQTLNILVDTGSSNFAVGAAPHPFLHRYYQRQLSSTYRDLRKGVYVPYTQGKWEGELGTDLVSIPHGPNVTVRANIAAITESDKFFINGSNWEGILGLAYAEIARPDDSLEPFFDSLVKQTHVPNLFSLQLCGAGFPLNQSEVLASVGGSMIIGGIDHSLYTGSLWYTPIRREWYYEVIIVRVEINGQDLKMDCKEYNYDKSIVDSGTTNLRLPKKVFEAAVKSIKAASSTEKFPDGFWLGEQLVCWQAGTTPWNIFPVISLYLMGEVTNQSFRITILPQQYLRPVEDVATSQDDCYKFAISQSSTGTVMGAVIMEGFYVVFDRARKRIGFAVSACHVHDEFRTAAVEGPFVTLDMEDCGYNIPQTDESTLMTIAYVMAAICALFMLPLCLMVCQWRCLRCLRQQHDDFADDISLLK

`CCCN(CCC)C(=O)c1cccc(C(=O)N[C@@H](Cc2cc(F)cc(F)c2)[C@@H](O)C[C@@H](C)C(=O)NCC(C)C)c1`: the IC50 (in general, the concentration that inhibits the measured activity by half) came to 0.03 µM.
`CCCN(CCC)C(=O)c1cccc(C(=O)N[C@@H](Cc2cc(F)cc(F)c2)[C@@H](O)CN[C@@H](C)C(=O)NCC(C)C)c1` [N-[(1S,2S)-1-(3,5-difluorobenzyl)-2-hydroxy-3-({(1S)-1-methyl-2-[(2-methylpropyl)amino]-2-oxoethyl}amino)propyl]-N,N-dipropylbenzene-1,3-dicarboxamide] came in with an IC50 of 68 µM.
